This is an account of results in PMC11088557 (Clinical Drug Investigation, 2024).

The conditions of data set [1]: combination vs MCC alone.
For data set [2] the following is noted: viloxazine ER 900 mg qd, steady state.
The subject of data set [3] is CYP2C8. The settings on record: in vitro study; cited from earlier work.
Data set [4] concerns CYP2C9. The note with it: in vitro study; cited from earlier work.
For data set [5] the following is noted: viloxazine ER 900 mg/day from Day 3; Day 4; p values > 0.05.
Data set [6] deals with CYP2D6. The note with it: cited from earlier work.
For data set [7], the system named is CYP3A4. The settings on record: cited from earlier work.
For data set [8], the system named is CYP1A2. The note with it: cited from earlier work.
Data set [9] deals with CYP2C19. The settings on record: in vitro study; cited from earlier work.
Data set [10] deals with CYP2B6. The settings on record: published in vitro study; cited from earlier work.
For data set [11] the following is noted: cited from earlier work.
For data set [12] the following is noted: cited from earlier work. This is another data set of the same source.

Where “and” joins values, the source holds several entries; their conditions need not be identical. Equal values may be shown once.

In the case of `COc1ccc2c(c1)[C@]13CCCC[C@@H]1[C@H](C2)N(C)CC3` [Dextromethorphan, dextromethorphan], the “prolongation of median Tmax with viloxazine ER vs MCC alone” value in [1] is recorded as 1 h.

As for `CCOc1ccccc1OCC1CNCCO1` (stereo not shown) [viloxazine], in data set [2], the “AUC24 higher in CYP2D6 PMs than EMs” value is 26% and 25%; the “Cmax higher in CYP2D6 PMs than EMs” value was determined as 21%; the “Cmin higher in CYP2D6 PMs than EMs” value stood at 33%. In data set [3], the “in vitro inhibition of CYP2C8” value was “no meaningful inhibition”. In addition, the “in vitro inhibition of CYP2C9” value in [4] is “no meaningful inhibition”. The “attainment of steady state” value in [5] is “second day of dosing”. The ki in [6] (in vitro, [dextromethorphan]) is 12.7 µg/mL. Also, the “in vitro inhibition of CYP2D6” value in [6] (published in vitro study) was “weak inhibitor”. In data set [7] (in vitro, [midazolam]), the ki was 26.8 µg/mL. Further, in [7] (published in vitro study), the “in vitro inhibition of CYP3A4/5” value is “weak inhibitor”. The ki in data set [8] (in vitro, [caffeine]) is 0.124 µg/mL. For the same compound, in data set [8] (published in vitro study), the “in vitro inhibition of CYP1A2” value is “strong, reversible inhibitor”. Further, the “in vitro inhibition of CYP2C19” value in data set [9] was “no meaningful inhibition”. The “in vitro inhibition of CYP2B6” value in [10] is “weak inhibitor”. In [11], the “5-hydoxyviloxazine metabolites, share of the metabolized fraction of the drug” value is recorded as “about 50%” and the dose excreted unchanged result is listed as “approximately 22%”. In data set [12], the “change in Cmax when coadministered with paroxetine” value is “no changes” and the “increase in AUC when coadministered with paroxetine” value is less than 35%.
